The results in this text go back to US7553972B2, “Benzamide inhibitors of the P2X7 receptor” (Pfizer, Inc., priority 2003, dated 2009).

pIC50: −log10 of the molar value.

The target in this experiment is T1, P2X7 receptor (Homo sapiens, UniProt Q99572).
T1 construct: endogenous in cells
T1 sequence (Q99572 1-595): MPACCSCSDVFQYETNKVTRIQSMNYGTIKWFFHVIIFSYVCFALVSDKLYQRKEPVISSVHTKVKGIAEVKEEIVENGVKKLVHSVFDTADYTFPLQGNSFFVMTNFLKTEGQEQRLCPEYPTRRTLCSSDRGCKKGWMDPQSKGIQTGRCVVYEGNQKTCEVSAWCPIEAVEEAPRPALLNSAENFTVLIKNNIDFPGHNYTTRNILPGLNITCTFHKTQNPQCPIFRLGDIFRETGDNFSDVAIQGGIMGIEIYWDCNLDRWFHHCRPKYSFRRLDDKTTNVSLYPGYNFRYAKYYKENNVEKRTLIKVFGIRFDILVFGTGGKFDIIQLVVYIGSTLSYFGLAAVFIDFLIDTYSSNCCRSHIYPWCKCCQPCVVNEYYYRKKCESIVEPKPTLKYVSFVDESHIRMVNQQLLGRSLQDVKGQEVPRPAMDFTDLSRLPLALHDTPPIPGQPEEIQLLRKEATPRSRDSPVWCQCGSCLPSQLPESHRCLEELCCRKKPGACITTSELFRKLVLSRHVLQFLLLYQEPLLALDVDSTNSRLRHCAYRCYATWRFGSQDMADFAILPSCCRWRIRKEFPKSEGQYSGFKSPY
Nature of the experiment: Inhibition of ATP-stimulated IL-1β release from LPS-activated blood monocytes (P2X7 antagonist activity, ELISA readout). Type of experiment: cell-based. Particulars: monocytes from normal volunteers, 10 ng/ml LPS 2 h, compound 30 min, 2 mM ATP 3 h, IL-1β by ELISA, triplicate wells; read-out: IC50 (inhibit 50% of the stimulation of the release of IL-1β from monocytes by ATP). The procedure:
In like manner, the compounds of the invention can be tested for antagonist activity at the P2X7 receptor using the cytokine IL-1β as the readout. Blood collected from normal volunteers in the presence of heparin is fractionated using lymphocyte separation medium obtained from Organon Technica (Westchester, Pa.). […] The resulting cell pellet was suspended in 10 ml of Maintenance Medium and a cell count was performed. In an average experiment, 2×10^5 mononuclear cells are seeded into each well of 96-well plates in a total volume of 0.1 ml. Monocytes are allowed to adhere for 2 hours, after which the supernatants are discarded and the attached cells are rinsed twice and then incubated in Maintenance Medium overnight at 37° C. in a 5% CO2 environment.
The cultured monocytes can be activated with 10 ng/ml LPS (E. coli serotype 055:B5; Sigma Chemicals, St. Louis, Mo.). […] ATP then is introduced (from a 100 mM stock solution, pH 7) to achieve a final concentration of 2 mM and the plate is incubated at 37° C. for an additional 3 hours. Media were harvested and clarified by centrifugation, and their IL-1[…] content was determined by ELISA (R&D Systems; Minneapolis, Minn.).
Blood was collected from normal volunteers in the presence of heparin, and was fractionated using lymphocyte separation medium obtained from Organon Technica (Westchester, Pa.). […] The resulting cell pellet was suspended in 10 ml of Maintenance Medium and a cell count was performed. Approximately, 2×10^5 mononuclear cells were seeded into each well of 96-well plates in a total volume of 0.1 ml. Monocytes were allowed to adhere for 2 hours, after which the supernatants were discarded and the attached cells were rinsed twice and then incubated in Maintenance Medium overnight at 37° C. in a 5% CO2 environment.
The cultured monocytes were activated with 10 ng/ml LPS (E. coli serotype 055:B5; Sigma Chemicals, St. Louis, Mo.). […] ATP then was introduced (from a 100 mM stock solution, pH 7) to achieve a final concentration of 2 mM and the plate was incubated at 37° C. for an additional 3 hours. Media were harvested and clarified by centrifugation, and their IL-1β content was determined by ELISA (R&D Systems; Minneapolis, Minn.).

On to `COC[C@H](O)Cn1nc(-c2ccc(Cl)c(C(=O)NCC3(O)CCCCCC3)c2)cc1C` (stereo in doubt) [Example 39, 2-Chloro-N-(1-hydroxy-cycloheptylmethyl)-5-[1-(2-hydroxy-3-methoxy-propyl)-5-methyl-1H-pyrazol-3-yl]-benzamide], for which the pIC50 was 8.10.

In the case of `Cc1ccc(C2(CNC(=O)c3cc(-c4ccc(C)nc4)ccc3Cl)CCCCC2)cc1` [Example 1, 2-Chloro-5-(6-methyl-pyridin-3-yl)-N-(1-p-tolyl-cyclohexylmethyl)-benzamide], the pIC50 was 7.54.

For the molecule `Cc1ccc(-c2ccc(Cl)c(C(=O)NCC3(O)CCCC(C)(C)C3)c2)nc1` (stereo not shown) [Example 2, 2-Chloro-N-(1-hydroxy-3,3-dimethyl-cyclohexylmethyl)-5-(5-methyl-pyridin-2-yl)-benzamide], the pIC50 is 7.96.

For `COc1ccc(-c2ccc(Cl)c(C(=O)NCC3(O)CCCCCC3)c2)nn1` [Example 4, 2-Chloro-N-(1-hydroxy-cycloheptylmethyl)-5-(6-methoxy-pyridazin-3-yl)-benzamide], the negative logarithm of the IC50 (pIC50) was 6.55.

For the molecule `O=C(NCC1(O)CCCCCC1)c1cc(-c2ccc(=O)[nH]n2)ccc1Cl` [Example 5, 2-Chloro-N-(1-hydroxy-cycloheptylmethyl)-5-(6-oxo-1,6-dihydro-pyridazin-3-yl)-benzamide], the pIC50 was 6.03.

As for `COc1ccc(Cn2cc(-c3ccc(Cl)c(C(=O)NCCc4ccccc4Cl)c3)cn2)cc1` [Example 6, 2-Chloro-N-[2-(2-chloro-phenyl)-ethyl]-5-[1-(4-methoxy-benzyl)-1H-pyrazol-4-yl]-benzamide], the pIC50 was 5.85.

Consider `Cc1ccc(-c2ccc(Cl)c(C(=O)NCCc3ccccc3Cl)c2)nc1` [Example 7, 2-Chloro-N-[2-(2-chloro-phenyl)-ethyl]-5-(5-methyl-pyridin-2-yl)-benzamide], for which the pIC50 was 5.78.

`COc1ccc(-c2ccc(Cl)c(C(=O)NCCc3ccccc3Cl)c2)nn1` [Example 8, 2-Chloro-N-[2-(2-chloro-phenyl)-ethyl]-5-(6-methoxy-pyridazin-3-yl)-benzamide]: the pIC50 is 6.28.

As to `O=C(NCCc1ccccc1Cl)c1cc(-c2cn[nH]c2)ccc1Cl` [Example 10, 2-Chloro-N-[2-(2-chloro-phenyl)-ethyl]-5-(1H-pyrazol-4-yl)-benzamide], the pIC50 is 6.10.

As for `Cc1cc(-c2ccc(Cl)c(C(=O)NCC3(O)CCCCCC3)c2)on1` [Example 12, 2-Chloro-N-(1-hydroxy-cycloheptylmethyl)-5-(3-methyl-isoxazol-5-yl)-benzamide], the pIC50 is 6.62.

As to `Cc1cc(-c2ccc(Cl)c(C(=O)NCC3(O)CCCC(C)(C)C3)c2)[nH]n1` (stereo not shown) [Example 13, 2-Chloro-N-(1-hydroxy-3,3-dimethyl-cyclohexylmethyl)-5-(5-methyl-2H-pyrazol-3-yl)-benzamide], the pIC50 was 8.10.

Consider `Cc1cc(-c2ccc(Cl)c(C(=O)NCC3(O)CCCC(C)(C)C3)c2)on1` (stereo not shown) [Example 14, 2-Chloro-N-(1-hydroxy-3,3-dimethyl-cyclohexylmethyl)-5-(3-methyl-isoxazol-5-yl)-benzamide], for which the pIC50 is 7.09.

Regarding `CCc1cc(-c2ccc(Cl)c(C(=O)NCC3(O)CCCCCC3)c2)[nH]n1` [Example 15, 2-Chloro-5-(5-ethyl-2H-pyrazol-3-yl)-N-(1-hydroxy-cycloheptylmethyl)-benzamide], the pIC50 is 7.64.

Take `CCc1cc(-c2ccc(Cl)c(C(=O)NCCc3ccccc3Cl)c2)[nH]n1` [Example 16, 2-Chloro-N-[2-(2-chloro-phenyl)-ethyl]-5-(5-ethyl-2H-pyrazol-3-yl)-benzamide]: the pIC50 is 6.43.

For `Cc1ccc(C2(CNC(=O)c3cc(-c4cc[nH]n4)ccc3Cl)CCCCC2)cc1` [Example 17, 2-Chloro-5-(1H-pyrazol-3-yl)-N-(1-p-tolyl-cyclohexylmethyl)-benzamide], the pIC50 was 7.74.

Regarding `O=C(NCCc1ccccc1Cl)c1cc(-c2cc[nH]n2)ccc1Cl` [Example 18, 2-Chloro-N-[2-(2-chloro-phenyl)-ethyl]-5-(1H-pyrazol-3-yl)-benzamide], the pIC50 was 6.26.

For the molecule `O=C(NCC1(O)CCCCCC1)c1cc(-c2cc[nH]n2)ccc1Cl` [Example 19, 2-Chloro-N-(1-hydroxy-cycloheptylmethyl)-5-(1H-pyrazol-3-yl)-benzamide], the pIC50 is 6.74.

In the case of `Cc1cc(-c2ccc(Cl)c(C(=O)NCC3(C#N)CCCCCC3)c2)[nH]n1` [Example 21, 2-Chloro-N-(1-cyano-cycloheptylmethyl)-5-(5-methyl-2H-pyrazol-3-yl)-benzamide], the pIC50 is 7.34.

`O=C(NCC1(O)CCCCCC1)c1cc(-c2cc(C3CC3)[nH]n2)ccc1Cl` [Example 22, 2-Chloro-5-(5-cyclopropyl-1H-pyrazol-3-yl)-N-(1-hydroxy-cycloheptylmethyl)-benzamide]: the pIC50 is 7.30.

Take `O=C(NCC1(O)CCCCCC1)c1cc(-c2cc(C(F)(F)F)n[nH]2)ccc1Cl` [Example 23, 2-Chloro-N-(1-hydroxy-cycloheptylmethyl)-5-(5-trifluoromethyl-1H-pyrazol-3-yl)-benzamide]: the pIC50 was 6.70.

As for `Cc1cc(-c2ccc(Cl)c(C(=O)NCC3(O)CCCCCC3)c2)nn1CCO` [Example 25, 2-Chloro-N-(1-hydroxy-cycloheptylmethyl)-5-[1-(2-hydroxy-ethyl)-5-methyl-1H-pyrazol-3-yl]-benzamide], the pIC50 is 8.40.

Consider `O=C(NCC1(O)CCCCCC1)c1cc(-c2ccnn2CCO)ccc1Cl` [Example 26, 2-Chloro-N-(1-hydroxy-cycloheptylmethyl)-5-[2-(2-hydroxy-ethyl)-2H-pyrazol-3-yl]-benzamide], for which the pIC50 was 6.43.

Consider `O=C(NCC1(O)CCCCCC1)c1cc(-c2ccn(CCO)n2)ccc1Cl` [Example 27, 2-Chloro-N-(1-hydroxy-cycloheptylmethyl)-5-[1-(2-hydroxy-ethyl)-1H-pyrazol-3-yl]-benzamide], for which the pIC50 is 7.51.

With `Cn1ccc(-c2ccc(Cl)c(C(=O)NCC3(O)CCCCCC3)c2)n1` [Example 29, 2-Chloro-N-(1-hydroxy-cycloheptylmethyl)-5-(1-methyl-1H-pyrazol-3-yl)-benzamide], the negative logarithm of the IC50 (pIC50) is 6.62.

On to `Cc1cc(-c2ccc(Cl)c(C(=O)NCC3(O)CCCCCC3)c2)n(CCO)n1` [Example 31, 2-Chloro-N-(1-hydroxy-cycloheptylmethyl)-5-[2-(2-hydroxy-ethyl)-5-methyl-2H-pyrazol-3-yl]-benzamide], for which the pIC50 was 7.15.

For the molecule `NCCn1ccc(-c2ccc(Cl)c(C(=O)NCC3(O)CCCCCC3)c2)n1` [Example 32, 5-[1-(2-Amino-ethyl)-1H-pyrazol-3-yl]-2-chloro-N-(1-hydroxy-cycloheptylmethyl)-benzamide], the pIC50 is 7.42.

For `Cc1cc(-c2ccc(Cl)c(C(=O)NCC3(O)CCCCCC3)c2)nn1CCN` [Example 33, 5-[1-(2-Amino-ethyl)-5-methyl-1H-pyrazol-3-yl]-2-chloro-N-(1-hydroxy-cycloheptylmethyl)-benzamide], the pIC50 is 7.96.

`N#CCn1ccc(-c2ccc(Cl)c(C(=O)NCC3(O)CCCCCC3)c2)n1` [Example 34, 2-Chloro-5-(1-cyanomethyl-1H-pyrazol-3-yl)-N-(1-hydroxy-cycloheptylmethyl)-benzamide]: the pIC50 is 6.71.
